Test results reported in patent publication US20250065017A1, “Fractionating Extracellular Matrix to Modulate Bioactivity and the Host Response” (University of Pittsburgh - Of the Commonwealth System of …, priority 2014, published 2025).

Tests used:
[1] = tested on: THP1 macrophage-like cells; assay: COX2 expression by western blot; assay type: cell-based, human; settings: Aspirin 200 μM with UBM hydrogel 0.5 mg/mL; 4, 8, 24 hours
Protocol: THP-1 human monocytes were obtained from the American Tissue Culture Collection (ATCC, Manassas, VA) and maintained in RPMI, 10% FBS, 1% penicillin/streptomycin, 2 mM L-glutamine, and 1 mM sodium pyruvate in a humidified atmosphere at 37° C. with 5% CO2. For experiments, 500,000 THP-1 cells/mL were plated with 320 nM phorbol 12-myristate 13-acetate (PMA) for 24 hours to induce differentiation into macrophages. Adherent macrophages were washed in PBS and placed in fresh media, followed by a 24 hour incubation to acquiesce.
Cells were then treated with UBM hydrogel for 4, 8, or 24 hours. At the specified time points, cells were washed extensively with 1× PBS and lysis buffer (50 mM Tris, 20 mM NaCl, 1% Triton X-100) was added. Cells were mechanically removed from the culture dish, transferred to centrifuge tubes and incubated on ice for 10 minutes. Lysates were spun down at 14000 rpm for 20 minutes at 4° C. to remove any debris. The clarified lysate was stored at −80° C. Lysates were diluted 1:1 in 2× Laemmli Sample Buffer (Bio-Rad, Hercules, CA) and boiled at 95° C. for 5 minutes. Samples were then resolved on 9% SDS-PAGE gels (National Diagnostics) and transferred to polyvinyldifluoride (PVDF, Millipore) membranes. Membranes were blocked with 1:1 Odyssey Blocking Buffer:1×PBS (Licor) overnight at 4° C. […]

C2C12 murine myoblasts = assay: In vitro myogenesis, THP1/C2C12 transwell co-culture; assay type: cell-based
Protocol: C2C12 murine myoblasts were obtained from ATCC and grown in complete media (DMEM, 10% FBS, 1% penicillin/streptomycin) at 37° C./5% CO2 according to the ATCC recommendations. Myoblasts were seeded at a density of 5,000 cells/cm^2 in 24 well plates and allowed proliferate to 90% confluence. Cells were then washed in 1×PBS and incubated in differentiation media (DMEM, 2% horse Serum, 1% penicillin/streptomycin) for 24 hours. Cells were washed in 1×PBS and placed in basal media (DMEM, 1% penicillin/streptomycin). A transwell insert (Corning) containing 100,000 differentiated THP1 cells (as described in section 2.9) in 200 μL of complete THP1 cell media was placed in each well. UBM hydrogel (0.5 mg/mL, final concentration) was then added to the THP1 transwell insert only. […] A standardized image capture system and quantitative analysis of in vitro myogenesis was performed as previously described (Goh […], Corbett J T, Pierre […], Pizza F X. Intercellular adhesion molecule-1 expression by skeletal muscle Cells Augments myogenesis. Exp Cell Res 2014). Briefly, custom macro functions (Image […]; Media Cybernetics Inc.) were used to objectively quantify several important myogenesis parameters (e.g., the number of nuclei, myotubes, and nuclei within a myotube). […] The fusion index was calculated by expressing the number of nuclei within myotubes as a percentage of total nuclei.

[2] = tested on: primary rat bone marrow derived macrophages; assay: PGE2 secretion in primary BMDM; assay type: cell-based; settings: UBM hydrogel 0.5 mg/mL 48 hours; inhibitor pre-treatment 1 hour
Protocol: Rat bone marrow mononuclear cells were matured to macrophages as previously described ([…], Forster O. Differentiation of rat bone marrow cells into macrophages under the influence of mouse L929 cell supernatant. J Leukoc Biol 1987;41(1):83-91). […] The cell pellet was resuspended in red blood cell (RBC) lysis buffer (155 mM NH4Cl, 10 mM KHCO3, 0.9% EDTA in distilled water) and incubated for 15 minutes on ice. Cell debris was removed by centrifugation and the cell pellet was resuspended in macrophage maturation media (DMEM high glucose, 10% heat inactivated FBS, 20% L929 fibroblast conditioned media, 0.5 mM MEM non-essential amino acids, 2 mM L-glutamine, 10 mM Hepes pH 7.4, 1% penicillin/streptomycin, 0.12% 50 mM 2-mercaptoethanol). Cells were seeded at a density of 1 million/mL in 6 well plates and incubated at 37° C./5% CO2. Media was changed every 2-3 days for 7 days. Matured bone marrow derived macrophages (BMDMs) were treated with 1 mL of StemPro® Accutase® (Invitrogen), incubated at 37° C. for 10 minutes, and detached with gentle pipetting. The cell suspension was collected and centrifuged for 5 mins at 1400 rpm. […] Secreted factor concentrations in the culture supernatants were determined using commercially available ELISA kits (PGE2, PGF2α, ENZO Life Sciences) and IL-1RA (R&D Systems)) according to the manufacturer's instructions.

## CC(=O)Oc1ccccc1C(=O)O [Aspirin]
[1]
  change in COX2 expression: did not cause any changes in COX2 expression
C2C12 murine myoblasts; Aspirin 200 μM co-administered with UBM 0.5 mg/mL, 48 hours
  myogenesis metrics: reduced these myogenesis metrics down to control levels
C2C12 murine myoblasts; Aspirin with UBM, THP1/C2C12 co culture
  reduction in fusion index: 92%
[2]
  PGE2 production: reduced PGE2 production to baseline levels
